Experimental data as given in PubChem BioAssay AID248 (DTP/NCI, 2004).
Several values for one entry are separate records, joined by “and”; a condition that tells them apart may be missing. Equal values may be shown once. Inconclusive results and toxic doses are left out. Rule as the data show it: active = T/C of 150% or more; inactive = T/C below 125%.

Tested on: L1210 leukemia ip in BDF1 mice, survival T/C
Assay: NCI In Vivo Anticancer Drug Screen. Data for tumor model L1210 Leukemia (intraperitoneal) in B6D2F1 (BDF1) mice
Conditions: endpoint: mean survival time, higher = longer survival
In short: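 Value reflects the ratio of survival in compound-treated mice to survival in vehicle-treated controls, with both groups carrying the same transplanted tumor.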

[1] = dose: 50.0 mg/kg/injection, schedule: Q01DX009 (ip), vehicle: saline
[2] = dose: 50.0 mg/kg/injection, schedule: Q04DX003 (ip), vehicle: saline
[3] = dose: 100.0 mg/kg/injection, schedule: Q01DX001 (ip), vehicle: saline
[4] = dose: 100.0 mg/kg/injection, schedule: Q01DX009 (ip), vehicle: saline
[5] = dose: 100.0 mg/kg/injection, schedule: Q04DX003 (ip), vehicle: saline
[6] = dose: 100.0 mg/kg/injection, schedule: Q01DX001 (ip), vehicle: Klucel (hydroxypropylcellulose) (HPC)
[7] = dose: 200.0 mg/kg/injection, schedule: Q01DX001 (ip), vehicle: Klucel (hydroxypropylcellulose) (HPC)
[8] = dose: 400.0 mg/kg/injection, schedule: Q01DX001 (ip), vehicle: Klucel (hydroxypropylcellulose) (HPC)
[9] = dose: 100.0 mg/kg/injection, schedule: Q04DX002 (ip), vehicle: Klucel (hydroxypropylcellulose) (HPC)
[10] = dose: 200.0 mg/kg/injection, schedule: Q04DX002 (ip), vehicle: Klucel (hydroxypropylcellulose) (HPC)
[11] = dose: 400.0 mg/kg/injection, schedule: Q04DX002 (ip), vehicle: Klucel (hydroxypropylcellulose) (HPC)
[12] = dose: 100.0 mg/kg/injection, schedule: Q04DX002 (ip), vehicle: saline with Tween-80
[13] = dose: 200.0 mg/kg/injection, schedule: Q04DX002 (ip), vehicle: saline with Tween-80
[14] = dose: 100.0 mg/kg/injection, schedule: Q01DX009 (ip), vehicle: Klucel (hydroxypropylcellulose) (HPC)
[15] = dose: 200.0 mg/kg/injection, schedule: Q01DX009 (ip), vehicle: Klucel (hydroxypropylcellulose) (HPC)
[16] = dose: 100.0 mg/kg/injection, schedule: Q04DX003 (ip), vehicle: Klucel (hydroxypropylcellulose) (HPC)
[17] = dose: 200.0 mg/kg/injection, schedule: Q04DX003 (ip), vehicle: Klucel (hydroxypropylcellulose) (HPC)
[18] = dose: 400.0 mg/kg/injection, schedule: Q04DX003 (ip), vehicle: Klucel (hydroxypropylcellulose) (HPC)
[19] = dose: 200.0 mg/kg/injection, schedule: Q01DX001 (ip), vehicle: saline
[20] = dose: 400.0 mg/kg/injection, schedule: Q01DX001 (ip), vehicle: saline
[21] = dose: 400.0 mg/kg/injection, schedule: Q01DX009 (ip), vehicle: Klucel (hydroxypropylcellulose) (HPC)
[22] = dose: 200.0 mg/kg/injection, schedule: Q01DX009 (ip), vehicle: saline
[23] = dose: 200.0 mg/kg/injection, schedule: Q04DX003 (ip), vehicle: saline
[24] = dose: 400.0 mg/kg/injection, schedule: Q01DX009 (ip), vehicle: saline
[25] = dose: 400.0 mg/kg/injection, schedule: Q04DX003 (ip), vehicle: saline

Measured: T/C

O/C=C(\Cl)CCl
inactive: dose: 50.0 mg/kg/injection, schedule: Q01DX001 (ip), vehicle: saline 100 % of control | [1] 107 % of control and 108 % of control | dose: 50.0 mg/kg/injection, schedule: Q04DX002 (ip), vehicle: saline 97 % of control and 106 % of control | [2] 97 % of control | [3] 90 % of control | [4] 101 % of control and 104 % of control | [5] 106 % of control

Oc1ccccc1N=Cc1c(O)ccc2ccccc12
inactive: dose: 100.0 mg/kg/injection, schedule: Q01DX001 (ip), vehicle: other 96 % of control | dose: 200.0 mg/kg/injection, schedule: Q01DX001 (ip), vehicle: other 98 % of control | dose: 400.0 mg/kg/injection, schedule: Q01DX001 (ip), vehicle: other 101 % of control

CC1CCC(O)(C(C)(C(=O)O)c2ccccc2)CC1 (stereo unspecified)
inactive: dose: 55.0 mg/kg/injection, schedule: Q01DX Z (ip), vehicle: methylcellulose (MC) 96 % of control | dose: 83.0 mg/kg/injection, schedule: Q01DX Z (ip), vehicle: methylcellulose (MC) 105 % of control | dose: 125.0 mg/kg/injection, schedule: Q01DX Z (ip), vehicle: methylcellulose (MC) 93 % of control

N#CCNC(=O)c1ccc(I)cc1
inactive: [6] 111 % of control | [7] 95 % of control | [8] 106 % of control

CCS(=O)(=O)CCN1C(=O)C2C3CCC(O3)C2C1=O (stereo unspecified)
inactive: [9] 98 % of control | [10] 95 % of control | [11] 117 % of control

O=S(=O)(F)c1cc(CBr)ccc1Cl
inactive: [12] 98 % of control | [13] 95 % of control | dose: 400.0 mg/kg/injection, schedule: Q04DX002 (ip), vehicle: saline with Tween-80 101 % of control

CCS(=O)(=O)/C=C/c1cccs1
inactive: [14] 104 % of control | [15] 100 % of control

CCCCCCNS(=O)(=O)c1ccc([N+](=O)[O-])cc1
inactive: [16] 100 % of control | [17] 100 % of control | [18] 93 % of control

CSCSCC(NC(=O)c1ccccc1)C(=O)O (stereo unspecified)
inactive: [3] 104 % of control | dose: 150.0 mg/kg/injection, schedule: Q04DX003 (ip), vehicle: saline 90 % of control | [19] 104 % of control | dose: 300.0 mg/kg/injection, schedule: Q04DX003 (ip), vehicle: saline 87 % of control | [20] 98 % of control | dose: 600.0 mg/kg/injection, schedule: Q04DX003 (ip), vehicle: saline 92 % of control

O=C1C(Cl)=C(Cl)C(Cl)(Cl)C1(Cl)Cl
inactive: dose: 12.5 mg/kg/injection, schedule: Q01DX009 (ip), vehicle: Klucel (hydroxypropylcellulose) (HPC) 98 % of control | dose: 12.5 mg/kg/injection, schedule: Q04DX003 (ip), vehicle: Klucel (hydroxypropylcellulose) (HPC) 98 % of control | dose: 25.0 mg/kg/injection, schedule: Q01DX009 (ip), vehicle: Klucel (hydroxypropylcellulose) (HPC) 101 % of control | dose: 25.0 mg/kg/injection, schedule: Q04DX003 (ip), vehicle: Klucel (hydroxypropylcellulose) (HPC) 96 % of control | dose: 50.0 mg/kg/injection, schedule: Q01DX009 (ip), vehicle: Klucel (hydroxypropylcellulose) (HPC) 94 % of control | dose: 50.0 mg/kg/injection, schedule: Q04DX003 (ip), vehicle: Klucel (hydroxypropylcellulose) (HPC) 100 % of control

CCCCCCCCCCc1nc(N)nc(NCCc2ccccc2)n1
inactive: [9] 106 % of control | [10] 89 % of control | [11] 100 % of control

Cc1ccc(S(=O)(=O)OCC(COS(=O)(=O)c2ccc(C)cc2)(COS(=O)(=O)c2ccc(C)cc2)COS(=O)(=O)c2ccc(C)cc2)cc1
inactive: dose: 50.0 mg/kg/injection, schedule: Q04DX002 (ip), vehicle: Klucel (hydroxypropylcellulose) (HPC) 97 % of control | [9] 93 % of control and 105 % of control | [10] 102 % of control | [11] 110 % of control

CC(=O)C(C(=O)c1ccccc1)C(c1ccccc1)c1ccccc1 (stereo unspecified)
inactive: [6] 93 % of control | [16] 92 % of control | [7] 90 % of control | [17] 96 % of control | [8] 92 % of control | [18] 94 % of control

Cc1cccc(NS(=O)(=O)c2ccc(Cl)cc2)c1C
inactive: [14] 109 % of control | [16] 96 % of control | [15] 105 % of control | [17] 94 % of control | [21] 94 % of control | [18] 103 % of control

CCCCC#CC(=O)OCCC
inactive: dose: 100.0 mg/kg/injection, schedule: Q04DX003 (ip), vehicle: saline with Tween-80 94 % of control | dose: 200.0 mg/kg/injection, schedule: Q04DX003 (ip), vehicle: saline with Tween-80 99 % of control

CCOC(=O)Nc1cc2c(nnn2C(c2ccccc2)c2ccccc2)c(N)n1
inactive: dose: 5.0 mg/kg/injection, schedule: Q01DX001 (ip), vehicle: other 112 % of control | dose: 10.0 mg/kg/injection, schedule: Q01DX001 (ip), vehicle: other 98 % of control | dose: 20.0 mg/kg/injection, schedule: Q01DX001 (ip), vehicle: other 93 % of control | dose: 40.0 mg/kg/injection, schedule: Q01DX001 (ip), vehicle: other 91 % of control | dose: 80.0 mg/kg/injection, schedule: Q01DX001 (ip), vehicle: other 86 % of control

CCCCCCCCCCOC(=O)COc1ccc(C(C)(C)C)cc1
inactive: [4] 92 % of control | [22] 98 % of control

CCc1ccc(NS(=O)(=O)c2ccc(OC)cc2)cc1
inactive: [14] 102 % of control | [15] 100 % of control | [21] 109 % of control

CCN(CC)CCC(CNC(=O)CN(CC)CC)(c1cccc2ccccc12)C(C)C (stereo unspecified)
inactive: dose: 12.5 mg/kg/injection, schedule: Q01DX009 (ip), vehicle: saline 98 % of control | dose: 12.5 mg/kg/injection, schedule: Q04DX003 (ip), vehicle: saline 94 % of control | dose: 25.0 mg/kg/injection, schedule: Q01DX009 (ip), vehicle: saline 93 % of control | dose: 25.0 mg/kg/injection, schedule: Q04DX003 (ip), vehicle: saline 110 % of control | [1] 90 % of control | [2] 104 % of control

COC(=O)C1=C2C(C(=O)OC)C(O)=C(C(=O)OC)C2C(C(=O)OC)C1=O (stereo unspecified)
inactive: [3] 97 % of control | [4] 100 % of control | [5] 107 % of control | [19] 105 % of control | [22] 97 % of control | [23] 104 % of control | [20] 103 % of control | [24] 95 % of control | [25] 104 % of control

NS(=O)(=O)Cl
inactive: dose: 100.0 mg/kg/injection, schedule: Q01DX009 (sc), vehicle: olive oil, sesame oil, peanut oil 98 % of control | dose: 100.0 mg/kg/injection, schedule: Q04DX003 (sc), vehicle: olive oil, sesame oil, peanut oil 102 % of control | dose: 200.0 mg/kg/injection, schedule: Q01DX009 (sc), vehicle: olive oil, sesame oil, peanut oil 100 % of control | dose: 200.0 mg/kg/injection, schedule: Q04DX003 (sc), vehicle: olive oil, sesame oil, peanut oil 103 % of control | dose: 400.0 mg/kg/injection, schedule: Q01DX009 (sc), vehicle: olive oil, sesame oil, peanut oil 95 % of control | dose: 400.0 mg/kg/injection, schedule: Q04DX003 (sc), vehicle: olive oil, sesame oil, peanut oil 108 % of control

Cc1nc(CCl)no1
inactive: [12] 104 % of control | [13] 95 % of control

COc1cc(C)oc(=O)c1
inactive: [6] 110 % of control | [3] 98 % of control | [4] 93 % of control and 101 % of control | [5] 97 % of control | [7] 104 % of control | [19] 98 % of control | [22] 93 % of control and 104 % of control | [23] 93 % of control | [8] 106 % of control | [20] 102 % of control | dose: 400.0 mg/kg/injection, schedule: Q01DX009 (ip), vehicle: saline with Tween-80 108 % of control | [24] 93 % of control | [25] 92 % of control
